From ChEMBL document CHEMBL5550206, “Identification of 6-Fluorine-Substituted Coumarin Analogues as POLRMT Inhibitors with High Potency and Safety for Treatment of Pancreatic Cancer” (J Med Chem, 2024)
Active and inactive are the calls of the source. No cut-off for these calls is given here.

Experiments:
MIA PaCa-2 [1] = experiment: Inhibition of colony formation in human MIA PaCa-2 cells assessed as decrease in size of colony at 5 nM incubated for 14 days by crystal violet staining based assay; format: functional, cell-based; details: time 14.0 day
MIA PaCa-2 [2] = experiment: Induction of cell arrest in human MIA PaCa-2 cells assessed as accumulation of cells at G2 phase at 25 nM measured after 96 hrs by PI staining based flow cytometry (reference value: 11.2%); format: functional
MIA PaCa-2 [3] = experiment: Effect on mitochondrial membrane potential loss in human MIA PaCa-2 cells assessed as change in membrane potential at 0.1 to 5 uM incubated for 96 hrs by JC-1 staining based flow cytometry analysis; format: functional, cell-based; details: dose 0.1-5 µM
MIA PaCa-2 [4] = experiment: Induction of intracellular ROS generation in human MIA PaCa-2 cells at 0.1 to 5 uM incubated for 96 hrs by DCFH-DA staining based flow cytometry; format: functional, cell-based; details: dose 0.1-5 µM
MIA PaCa-2 [5] = experiment: Induction of cell arrest in human MIA PaCa-2 cells assessed as viable cells at 100 nM measured after 4 days by Annexin V-FITC and propidium iodide (PI) staining based assay (reference value: 94.9%); format: functional; details: MIA PaCa-2, 96 h, time 4 day, read-out: Activity
MIA PaCa-2 [6] = experiment: Induction of cell arrest in human MIA PaCa-2 cells assessed as viable cells at 25 nM measured after 4 days by Annexin V-FITC and propidium iodide (PI) staining based assay (reference value: 94.9%); format: functional; details: MIA PaCa-2, 96 h, time 4 day, read-out: Activity
[7] = Toxicity in BALB/c mouse xenografted with human MIA PaCa-2 cells assessed as pathological change in spleen at 25 to 100 mg/kg, iv once daily for 25 consecutive day after 2 weeks of cells injection by H and E staining based optical microscopic analysis; format: organism-based; details: in vivo, 336 h, dose 25-100 mg/kg
MIA PaCa-2 [8] = experiment: Antitumor activity against human MIA PaCa-2 cells xenografted in BALB/c nude mouse assessed as reduction in Ki67 protein expression at 25 to 100 mg/kg, iv once daily for 25 consecutive day after 2 weeks of cells injection by immunohistochemical analysis; format: functional, organism-based; details: dose 25-100 mg/kg
MIA PaCa-2 [9] = experiment: Induction of cell arrest in human MIA PaCa-2 cells assessed as accumulation of cells at G1 phase at 500 nM measured after 96 hrs by PI staining based flow cytometry (reference value: 64%); format: functional
[10] = Toxicity in BALB/c mouse xenografted with human MIA PaCa-2 cells assessed as pathological change in kidney at 25 to 100 mg/kg, iv once daily for 25 consecutive day after 2 weeks of cells injection by H and E staining based optical microscopic analysis; format: organism-based; details: in vivo, 336 h, dose 25-100 mg/kg
MIA PaCa-2 [11] = experiment: Induction of cell arrest in human MIA PaCa-2 cells assessed as early apoptotic cells at 100 nM measured after 4 days by Annexin V-FITC and propidium iodide (PI) staining based assay (reference value: 1.07%); format: functional; details: time 4 day
MIA PaCa-2 [12] = experiment: Inhibition of RNA pol II in human MIA PaCa-2 cells assessed as effect on 25S RNA level at 0.1 to 1 uM measured after 12 hrs by RT-qPCR analysis; format: cell-based; details: dose 0.1-1 µM
MIA PaCa-2 [13] = experiment: Induction of cell arrest in human MIA PaCa-2 cells assessed as necrotic cells at 200 nM measured after 4 days by Annexin V-FITC and propidium iodide (PI) staining based assay (reference value: 0.82%); format: functional; details: time 4 day
MIA PaCa-2 [14] = experiment: Induction of cell arrest in human MIA PaCa-2 cells assessed as viable cells at 500 nM measured after 4 days by Annexin V-FITC and propidium iodide (PI) staining based assay (reference value: 94.9%); format: functional; details: MIA PaCa-2, 96 h, time 4 day, read-out: Activity
MIA PaCa-2 [15] = experiment: In vivo antitumor activity against human MIA PaCa-2 cells xenografted in BALB/c mouse assessed as reduction in tumor weight at 25 mg/kg, iv once daily for 25 consecutive day after 2 weeks of cells injection relative to control; format: functional; details: MIA PaCa-2, 600 h, time 25 day
MIA PaCa-2 [16] = experiment: Reduction of protein complexes of mitochondrial electron transport chain in human MIA PaCa-2 cells reduction in NDUFB8 protein level by Western blot analysis; format: functional, cell-based; details: dose 0.001-5 µM
[17] = target: DNA-directed RNA polymerase, mitochondrial (Homo sapiens) (UniProt O00411); experiment: Inhibition of human POLRMT in human MIA PaCa-2 cells assessed as inhibition of mitochondria coded ubiquinone oxidoreductase core subunit 1 (ND I) transcript level measured after 12 hrs by RT-qPCR analysis; details: dose 0.001-5 µM
MIA PaCa-2 [18] = experiment: Induction of cell arrest in human MIA PaCa-2 cells assessed as accumulation of cells at S phase at 50 nM measured after 96 hrs by PI staining based flow cytometry (reference value: 16.8%); format: functional
MIA PaCa-2 [19] = experiment: Induction of cell arrest in human MIA PaCa-2 cells assessed as early apoptotic cells at 200 nM measured after 4 days by Annexin V-FITC and propidium iodide (PI) staining based assay (reference value: 1.07%); format: functional; details: time 4 day
MIA PaCa-2 [20] = experiment: Induction of senescence in human MIA PaCa-2 cells at 50 to 1000 nM measured after 96 hrs by beta-galactosidase staining based assay; format: functional, cell-based; details: dose 50-1000 nM
MIA PaCa-2 [21] = experiment: Inhibition of RNA pol III in human MIA PaCa-2 cells assessed as effect on 5S RNA level at 0.1 to 1 uM measured after 12 hrs by RT-qPCR analysis; format: cell-based; details: dose 0.1-1 µM
MIA PaCa-2 [22] = experiment: Reduction of protein complexes of mitochondrial electron transport chain in human MIA PaCa-2 cells reduction in MTCO1 protein level by Western blot analysis; format: functional, cell-based; details: dose 0.001-5 µM
MIA PaCa-2 [23] = experiment: Inhibition of mitochondria coded ubiquinone oxidoreductase core subunit 1 (ND I) transcript level in human MIA PaCa-2 cells measured after 12 to 36 hrs of compound removal by RT-qPCR analysis; format: functional; details: time 12-36 hrs
MIA PaCa-2 [24] = experiment: In vivo antitumor activity against human MIA PaCa-2 cells xenografted in BALB/c mouse assessed as reduction in tumor weight at 100 mg/kg, iv once daily for 25 consecutive day after 2 weeks of cells injection relative to control; format: functional; details: MIA PaCa-2, 600 h, time 25 day
[25] = Toxicity in BALB/c mouse xenografted with human MIA PaCa-2 cells assessed as pathological change in lung at 25 to 100 mg/kg, iv once daily for 25 consecutive day after 2 weeks of cells injection by H and E staining based optical microscopic analysis; format: organism-based; details: in vivo, 336 h, dose 25-100 mg/kg
MIA PaCa-2 [26] = experiment: Induction of cell arrest in human MIA PaCa-2 cells assessed as viable cells at 200 nM measured after 4 days by Annexin V-FITC and propidium iodide (PI) staining based assay (reference value: 94.9%); format: functional; details: MIA PaCa-2, 96 h, time 4 day, read-out: Activity
PANC-1 = experiment: Antiproliferative activity against human PANC-1 cells assessed as cell viability measured after 168 hrs incubation by SRB assay; format: functional, cell-based; details: PANC-1, 168 h
MIA PaCa-2 [27] = experiment: Induction of cell arrest in human MIA PaCa-2 cells assessed as accumulation of cells at S phase at 25 nM measured after 96 hrs by PI staining based flow cytometry (reference value: 16.8%); format: functional
MIA PaCa-2 [28] = experiment: Induction of cell arrest in human MIA PaCa-2 cells assessed as viable cells at 50 nM measured after 4 days by Annexin V-FITC and propidium iodide (PI) staining based assay (reference value: 94.9%); format: functional; details: MIA PaCa-2, 96 h, time 4 day, read-out: Activity
MIA PaCa-2 [29] = experiment: Down-regulation of CytB gene expression in human MIA PaCa-2 cells at 0.1 to 1 uM measured after 12 hrs by RT-qPCR analysis; format: functional, cell-based; details: dose 0.1-1 µM

Chain of DNA-directed RNA polymerase, mitochondrial (Homo sapiens) (O00411 whole entry): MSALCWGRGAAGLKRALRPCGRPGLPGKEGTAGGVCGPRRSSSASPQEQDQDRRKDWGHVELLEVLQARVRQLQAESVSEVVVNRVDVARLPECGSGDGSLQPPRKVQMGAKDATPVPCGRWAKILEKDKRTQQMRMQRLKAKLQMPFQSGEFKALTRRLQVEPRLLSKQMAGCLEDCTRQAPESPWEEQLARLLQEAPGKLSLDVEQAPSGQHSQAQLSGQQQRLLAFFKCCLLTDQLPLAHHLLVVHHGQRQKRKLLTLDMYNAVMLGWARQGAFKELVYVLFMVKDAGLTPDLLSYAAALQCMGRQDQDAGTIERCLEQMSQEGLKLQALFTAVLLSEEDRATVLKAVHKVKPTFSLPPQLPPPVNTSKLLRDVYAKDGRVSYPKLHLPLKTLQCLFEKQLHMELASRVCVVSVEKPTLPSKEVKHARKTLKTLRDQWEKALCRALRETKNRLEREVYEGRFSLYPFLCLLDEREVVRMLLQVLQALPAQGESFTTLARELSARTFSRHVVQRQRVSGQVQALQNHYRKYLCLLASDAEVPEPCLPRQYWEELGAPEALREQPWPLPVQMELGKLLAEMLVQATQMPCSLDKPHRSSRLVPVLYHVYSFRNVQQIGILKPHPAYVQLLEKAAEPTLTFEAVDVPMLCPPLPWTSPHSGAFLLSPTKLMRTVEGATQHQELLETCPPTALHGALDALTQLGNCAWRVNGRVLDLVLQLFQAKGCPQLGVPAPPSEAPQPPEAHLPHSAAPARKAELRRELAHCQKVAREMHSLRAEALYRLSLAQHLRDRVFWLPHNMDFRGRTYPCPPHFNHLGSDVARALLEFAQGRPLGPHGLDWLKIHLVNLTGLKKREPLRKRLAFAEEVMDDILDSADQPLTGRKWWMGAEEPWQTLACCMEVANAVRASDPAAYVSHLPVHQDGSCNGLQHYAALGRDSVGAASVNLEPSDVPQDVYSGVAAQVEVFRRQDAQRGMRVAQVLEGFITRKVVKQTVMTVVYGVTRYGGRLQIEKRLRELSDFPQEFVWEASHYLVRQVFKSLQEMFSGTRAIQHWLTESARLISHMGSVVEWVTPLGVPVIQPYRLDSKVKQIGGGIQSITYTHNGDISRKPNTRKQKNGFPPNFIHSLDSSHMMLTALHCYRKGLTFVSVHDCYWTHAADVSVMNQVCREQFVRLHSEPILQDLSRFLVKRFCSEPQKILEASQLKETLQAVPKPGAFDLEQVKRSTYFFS

**Q.** What does the source list for CCN(CC)C(=O)[C@@H](C)Oc1cc2oc(=O)cc(-c3ccccc3C)c2cc1F?
**A.** inhibition (MIA PaCa-2 [1]): Active; Activity (MIA PaCa-2 [2]): 12.6%; Activity (MIA PaCa-2 [3]): inactive; Activity (MIA PaCa-2 [4]): inactive; viability at 0.1 µM (MIA PaCa-2 [5]): 94.9%; viability at 0.025 µM (MIA PaCa-2 [6]): 94.5%; Activity [7]: Non-Toxic; Activity (MIA PaCa-2 [8]): Active; Activity (MIA PaCa-2 [9]): 63.4%; Activity [10]: Non-Toxic; Activity (MIA PaCa-2 [11]): 0.57%; inhibition (MIA PaCa-2 [12]): inactive; Activity (MIA PaCa-2 [13]): 0.83%; viability at 0.5 µM (MIA PaCa-2 [14]): 94.3%; inhibition in vivo at 25 mg/kg (MIA PaCa-2 [15]): 45.2%; Activity (MIA PaCa-2 [16]): Dose-Dependent Effect; inhibition [17]: Dose-Dependent Effect; Activity (MIA PaCa-2 [18]): 15.4%; Activity (MIA PaCa-2 [19]): 1.06%; Activity (MIA PaCa-2 [20]): inactive; inhibition (MIA PaCa-2 [21]): inactive; Activity (MIA PaCa-2 [22]): Dose-Dependent Effect; inhibition (MIA PaCa-2 [23]): Active; inhibition in vivo at 100 mg/kg (MIA PaCa-2 [24]): 64.5%; Activity [25]: Non-Toxic; viability at 0.2 µM (MIA PaCa-2 [26]): 94.2%; IC50 (PANC-1): 198 nM; Activity (MIA PaCa-2 [27]): 14.2%; viability at 0.05 µM (MIA PaCa-2 [28]): 94.1%; Activity (MIA PaCa-2 [29]): Active
